Data published in PMC12143348, “Rapid and reversible fluorescent probe enables repeated snapshot imaging of AMPA receptors during synaptic plasticity” (Science Advances, 2025).

Molecular target: T1, GluK2(Q) (Rattus norvegicus, UniProt P42260)
T1 construct: expressed in transfected cells; host or cells: HEK293T
Test: Confocal live imaging of HEK293T cells expressing GluK2(Q) treated with PFQX1(AF488)
Type: binding
Conditions: even at high concentration (300 nM)
Method: HEK293T cells were cotransfected with plasmids for AMPAR [5′UTR-GluA1^flip(R)-3′UTR, GluA2^flip(Q)-3′UTR, GluA3^flip(Q) (Y454A/R461G), and GluA4^flip(Q)], kainate receptor [GluK2(Q)], auxiliary subunits, or the control vector and transfection marker (EFGP-F or mCherry-F). Fluorophore-ligand conjugates were diluted in Hepes-buffered saline (HBS) buffer [20 mM Hepes (pH 7.4), 107 mM NaCl, 6 mM KCl, 1.2 mM MgSO4, 2 mM CaCl2, and 11.5 mM glucose] and added to the cells. Confocal live imaging was performed with LSM900 (Carl Zeiss) equipped with a 63×, numerical aperture (NA) = 1.4 oil-immersion objective. Fluorescence images were acquired by excitation at 405, 488, 561, or 640 nm derived from diode lasers.
Anti-HA mCherry-F Merge1.0
Fig. S8. Sub-micromolar concentrations of PFQX1(AF488) fail to visualize cell surface kainate receptors in HEK293T cells. (A) HA-tag staining of GluK2(Q).
GluK2(Q) expressing cells were treated with anti-HA antibody (Alexa Fluor 647 conjugate) for 15 min. Scale bar, 10 µm. (B) Fluorescence Ca2+ assay to analyze the inhibition of 100 µM kainic acid-induced response by PFQX-amine. HEK293T cells were transfected with GluK2(Q). The intensity was normalized to that at 0.1 µM PFQX-amine (n = 3). (C) Representative results of confocal live cell imaging of HEK293T cells expressing GluK2(Q) are shown. mCherry-F was used as a transfection marker. […]

T1 sequence (P42260 32-908): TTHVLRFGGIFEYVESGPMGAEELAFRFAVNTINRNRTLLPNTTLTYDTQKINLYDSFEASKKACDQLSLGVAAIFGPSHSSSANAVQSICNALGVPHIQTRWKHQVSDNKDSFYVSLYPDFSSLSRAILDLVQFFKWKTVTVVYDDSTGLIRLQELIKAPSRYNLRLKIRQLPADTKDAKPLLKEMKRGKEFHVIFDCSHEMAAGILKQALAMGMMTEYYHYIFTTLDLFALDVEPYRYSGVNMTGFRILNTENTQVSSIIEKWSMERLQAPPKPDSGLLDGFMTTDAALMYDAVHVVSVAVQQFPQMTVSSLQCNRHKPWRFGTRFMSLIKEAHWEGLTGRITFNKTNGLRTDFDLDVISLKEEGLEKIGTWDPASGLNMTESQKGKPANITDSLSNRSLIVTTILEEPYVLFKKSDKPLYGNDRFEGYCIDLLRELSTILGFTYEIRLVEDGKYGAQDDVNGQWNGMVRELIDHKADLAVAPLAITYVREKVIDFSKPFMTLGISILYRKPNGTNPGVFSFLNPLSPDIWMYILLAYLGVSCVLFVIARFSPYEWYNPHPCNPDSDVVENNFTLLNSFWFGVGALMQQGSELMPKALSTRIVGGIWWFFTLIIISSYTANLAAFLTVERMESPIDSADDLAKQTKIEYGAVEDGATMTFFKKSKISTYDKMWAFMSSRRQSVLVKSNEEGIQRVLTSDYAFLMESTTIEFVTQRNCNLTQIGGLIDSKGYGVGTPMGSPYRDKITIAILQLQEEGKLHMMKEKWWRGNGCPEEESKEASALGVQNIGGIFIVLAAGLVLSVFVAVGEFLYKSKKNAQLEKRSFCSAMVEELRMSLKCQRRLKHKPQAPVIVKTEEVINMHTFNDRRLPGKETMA

## N=c1ccc2c(-c3ccc(C(=O)NCc4ccn(-c5cc6c(cc5C(F)(F)F)[nH]c(=O)c(=O)n6CC(=O)O)c4)cc3C(=O)O)c3ccc(N)c(S(=O)(=O)O)c3oc-2c1S(=O)(=O)O [PFQX1(AF488)]
  visualization of GluK2: failed to visualize GluK2
